What was measured:
NAT = details: cited from earlier work; for Inhibition of 5-ASA Ac-CoA-dependent metabolism: alternative NAT substrates
[1] = set-up: method as in PMID 3557190; details: healthy volunteers, intravenous dose 0.50 g, oral dose 2.42 g; cited from earlier work
[2] = system: peptide transporter 1 (PEPT1); set-up: method as in PMID 28867741; details: cited from earlier work
MRP2 = details: cited from earlier work
[3] = 5-ASA membrane distribution study in rats (GI membrane concentrations); details: fed rats, oral 30 mg/2.2 mL/kg
Method: The animal study was performed according to the Care and Use of Laboratory Animals of the Committee for Animal Experiments of Fukuyama University (2023-A-10). Male Sprague Dawley rats were purchased from Japan SLC, Inc. (Hamamatsu, Japan). After feeding for several days, the rats that weighed 200 to 300 g were used for the membrane distribution studies. […] Separately, the fed rats were treated with lansoprazole, which was dissolved with a small amount of dimethyl sulfoxide (DMSO) and then diluted with physiological saline to make a lansoprazole solution (5 mg/mL); this solution was injected intraperitoneally at a 5 mg/mL/kg dose. […] One milliliter of water was poured into each isolated segment’s lumen and the luminal fluid pH was measured using a compact pH meter (HORIBA, LAQUA twin®, Kyoto, Japan). The intestinal tract was opened and cleaned with ice-cold 0.9% NaCl solution, frozen in liquid nitrogen, and stored at −80 °C until analysis.
An L-column 2 ODS (150 mm × 4.6 mm, particle size 5 µm, CERI Co., Ltd., Saitama, Japan) was used, and the mobile phase was a mixture of 0.1 M acetic acid, acetonitrile, and triethylamine (920:100:2, v/v/v). The mobile phase flow rate was 1 mL/min. […] The HPLC system (Shimadzu, Kyoto, Japan) comprised a model LC20AD pump, a 20 µL fixed injection loop, and a fluorescence spectrophotometer (Shimadzu, RF10AXL). […]

[4] = Regional luminal fluid pH in rats; format: in vivo; details: lansoprazole 5 mg/mL/kg i.p. 1 h before oral 5-ASA solution in 5% NaHCO3; 3 h after 5-ASA; untreated control rats […] ± 0.60, p = 0.07
[5] = three animal species (rats, rabbits, and pigs); cited from earlier work

Structure (SMILES): Nc1ccc(C(=O)N[C@@H](CCC(=O)O)C(=O)O)cc1 [p-aminobenzoylglutamate]
- Inhibition of 5-ASA Ac-CoA-dependent metabolism (NAT): inhibited

Structure (SMILES): NNC(=O)c1ccncc1 [isoniazid]
- Inhibition of 5-ASA Ac-CoA-dependent metabolism (NAT): inhibited

Structure (SMILES): Nc1ccc(O)c(C(=O)O)c1 [5-ASA, 5-Aminosalicylic acid]
- Absolute oral bioavailability [1]: 15.5%
- Inhibition of PEPT1-mediated uptake transport [2]: can inhibit
- Substrate for MRP2 (MRP2): is not a substrate and not
- Km (NAT; saturable, read-out: Km of Ac-CoA-dependent metabolism): 5.8 µM
- Time for remaining unabsorbed 5-ASA in the small intestine to reach the distal intestine [3]: ≤ 8 h
- Time for some fraction of orally administered 5-ASA to reach the cecum/proximal colon [3]: ≤ 3 h

Structure (SMILES): Cc1c(OCC(F)(F)F)ccnc1C[S+]([O-])c1nc2ccccc2[nH]1 (centres unmarked) [lansoprazole]
- Gastric pH [4]: 4.77 ± 0.12

Structure (SMILES): O=c1c(O)c(-c2ccc(O)c(O)c2)oc2cc(O)cc(O)c12 [quercetin]
- PappBA/PappAB permeability ratio of AC-5-ASA in presence of the MRP inhibitor (MRP2; Caco-2 cells): ~1

Structure (SMILES): CC(=O)Nc1ccc(O)c(C(=O)O)c1 [AC-5-ASA, N-acetyl-5-ASA]
- PappBA/PappAB ratio (MRP2; Caco-2 cells): 4.89
- Substrate for MRP2 (MRP2): is a substrate

Structure (SMILES): C[C@]12C=CC(=O)C=C1CC[C@@H]1[C@@H]2[C@@H](O)C[C@@]2(C)[C@H]1CC[C@]2(O)C(=O)CO [prednisolone]
- Correlation of solubility with gastrointestinal pH [5]: not correlated significantly

Structure (SMILES): CN(C)C(=O)CCSC(SCCC(=O)O)c1cccc(/C=C/c2ccc3ccc(Cl)cc3n2)c1 (centres unmarked) [MK571]
- PappBA/PappAB permeability ratio of AC-5-ASA in presence of the MRP inhibitor (MRP2; Caco-2 cells): ~1
